Here are results for two compounds from publication PMC6515931, “The Efflux Mechanism of Fraxetin-O-Glucuronides in UGT1A9-Transfected HeLa Cells: Identification of Multidrug Resistance-Associated Proteins 3 and 4 (MRP3/4) as the Important Contributors” (Frontiers in Pharmacology, 2019).

Where “and” joins values, the source holds several entries; their conditions need not be identical. Equal entries are not always repeated. Where two headings read alike, the source gives them in different places.

The target in series [1] is T1, BCRP (Homo sapiens, UniProt Q9UNQ0).
T1 construct: BCRP, MRP1, MRP3, and MRP4 were detected in both wild-type HeLa and HeLa1A9 cells; endogenous in cells; host or cells: HeLa1A9 cells
T1 sequence (Q9UNQ0 1-655): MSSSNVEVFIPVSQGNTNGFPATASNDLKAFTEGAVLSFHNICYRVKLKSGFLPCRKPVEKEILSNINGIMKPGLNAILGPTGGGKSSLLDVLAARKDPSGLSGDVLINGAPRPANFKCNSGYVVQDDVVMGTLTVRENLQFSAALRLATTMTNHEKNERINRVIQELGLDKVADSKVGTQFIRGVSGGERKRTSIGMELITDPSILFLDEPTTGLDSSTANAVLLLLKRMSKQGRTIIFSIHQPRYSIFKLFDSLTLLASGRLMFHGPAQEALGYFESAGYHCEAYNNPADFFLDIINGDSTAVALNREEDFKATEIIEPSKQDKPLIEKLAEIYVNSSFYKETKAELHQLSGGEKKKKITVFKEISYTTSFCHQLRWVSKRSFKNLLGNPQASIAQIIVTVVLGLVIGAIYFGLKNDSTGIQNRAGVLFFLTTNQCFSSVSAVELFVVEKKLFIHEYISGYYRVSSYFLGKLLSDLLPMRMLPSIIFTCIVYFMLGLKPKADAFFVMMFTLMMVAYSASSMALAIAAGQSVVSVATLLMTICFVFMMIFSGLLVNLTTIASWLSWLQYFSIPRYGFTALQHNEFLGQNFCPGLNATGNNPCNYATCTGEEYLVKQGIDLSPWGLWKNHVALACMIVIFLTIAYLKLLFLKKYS
Nature of the series: shRNA-mediated partial silencing of BCRP in HeLa1A9 cells, glucuronide excretion. The format is cell-based. Conditions: fraxetin 10 μM. The procedure: (§1) The HeLa1A9 cells were pretreated and incubated with fraxetin solutions as reported previously ([Jiang et al., 2011]). Before assays, the HeLa1A9 cells were washed twice with prewarmed (37°C) Hank’s balanced salt solution (HBSS; pH = 7.4). After that, fraxetin (10 μM) dissolved in 2 mL of HBSS was incubated with the HeLa1A9 cells. At each time point (30, 60, 90, and 120 min), 200 μL of the culture supernatant from each well was collected as samples, and an equal volume of a loading media was used to replenish each well. Next, the collected samples were each mixed with 100 μL ice-cold acetonitrile. The supernatants were subjected to UHPLC analysis after centrifugation (10 min at 13800 × g).
(§2) In glucuronide excretion assays, biological inhibition mainly including shRNA-mediated partial silencing of BCRP and MRPs in HeLa cells was usually performed to evaluate the role of each efflux transporter ([Quan et al., 2015]; [Sun et al., 2015]; [Qin et al., 2018a]). Established shRNA_BCRP, shRNA_MRP1, shRNA_MRP3, and shRNA_MRP4 plasmids were transiently transfected into HeLa1A9 cells to develop the stably shRNA-transfected cell lines, named HeLa1A9-BCRP-shRNA cells, HeLa1A9-MRP1-shRNA, HeLa1A9-MRP3-shRNA, and HeLa1A9-MRP4-shRNA cells, respectively. […]
(§3) In addition, the excretion rate of intracellular glucuronides was calculated using Equ. […]

For a further series, the system named is HeLa1A9 cells. The series can be described thus: Toxicity toward HeLa1A9 cells during excretion experiments. The format is cell-based, human. Conditions: within the experimental concentration range.
In the next series the test system is cystathionine β-synthase. The arrangement: method as in Thorson et al., 2013. The following applies: cystathionine β-synthase inhibitor; ref Thorson et al., 2013; cited from earlier work.
Series [2] relates to UDP-glucuronosyltransferase 1A9 (UGT1A9). Details: method as in Xia et al., 2014. The following applies: ref Xia et al., 2014, cited from earlier work.
In the next series the target is T2, MRP1 (Homo sapiens, UniProt P33527).
T2 construct: BCRP, MRP1, MRP3, and MRP4 were detected in both wild-type HeLa and HeLa1A9 cells; endogenous in cells
T2 sequence (P33527 whole entry): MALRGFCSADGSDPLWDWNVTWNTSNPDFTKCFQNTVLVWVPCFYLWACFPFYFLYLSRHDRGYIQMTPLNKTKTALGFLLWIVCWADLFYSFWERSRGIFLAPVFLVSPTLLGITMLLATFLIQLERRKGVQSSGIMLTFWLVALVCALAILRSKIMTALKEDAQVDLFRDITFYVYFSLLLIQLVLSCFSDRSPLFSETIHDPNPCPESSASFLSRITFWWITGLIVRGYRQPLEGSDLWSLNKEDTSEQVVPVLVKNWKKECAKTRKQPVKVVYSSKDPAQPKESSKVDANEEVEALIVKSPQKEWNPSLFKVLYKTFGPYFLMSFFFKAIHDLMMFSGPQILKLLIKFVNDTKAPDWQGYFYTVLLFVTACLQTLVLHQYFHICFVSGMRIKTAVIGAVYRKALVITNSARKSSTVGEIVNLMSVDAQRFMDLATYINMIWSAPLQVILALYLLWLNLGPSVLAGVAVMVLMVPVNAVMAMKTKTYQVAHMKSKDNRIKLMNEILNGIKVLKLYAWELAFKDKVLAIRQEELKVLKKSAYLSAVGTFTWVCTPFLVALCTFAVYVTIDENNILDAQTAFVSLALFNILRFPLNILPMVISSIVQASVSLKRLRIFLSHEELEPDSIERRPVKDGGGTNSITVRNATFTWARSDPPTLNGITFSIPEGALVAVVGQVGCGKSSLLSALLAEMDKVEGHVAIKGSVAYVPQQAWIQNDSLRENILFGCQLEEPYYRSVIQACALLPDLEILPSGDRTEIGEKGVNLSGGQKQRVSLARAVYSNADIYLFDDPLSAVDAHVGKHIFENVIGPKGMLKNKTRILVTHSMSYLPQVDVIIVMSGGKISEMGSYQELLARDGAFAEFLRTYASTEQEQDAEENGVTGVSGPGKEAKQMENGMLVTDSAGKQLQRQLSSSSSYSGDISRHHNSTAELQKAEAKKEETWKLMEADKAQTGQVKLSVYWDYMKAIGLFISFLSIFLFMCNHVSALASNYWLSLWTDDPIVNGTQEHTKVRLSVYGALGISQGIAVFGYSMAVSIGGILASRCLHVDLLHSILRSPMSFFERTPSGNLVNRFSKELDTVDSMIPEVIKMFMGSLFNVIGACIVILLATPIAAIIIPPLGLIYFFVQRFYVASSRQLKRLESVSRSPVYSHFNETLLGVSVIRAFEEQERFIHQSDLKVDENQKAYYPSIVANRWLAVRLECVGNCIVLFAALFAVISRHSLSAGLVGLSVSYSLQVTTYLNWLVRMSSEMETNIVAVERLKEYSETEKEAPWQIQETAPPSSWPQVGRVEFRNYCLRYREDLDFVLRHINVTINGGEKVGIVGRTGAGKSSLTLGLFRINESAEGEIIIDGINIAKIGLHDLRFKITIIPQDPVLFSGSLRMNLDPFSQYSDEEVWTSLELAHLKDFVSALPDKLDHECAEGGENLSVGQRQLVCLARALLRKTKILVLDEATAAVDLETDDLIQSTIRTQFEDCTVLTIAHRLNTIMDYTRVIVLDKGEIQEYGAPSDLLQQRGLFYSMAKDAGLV
Nature of the series: shRNA-mediated partial silencing of MRP1 in HeLa1A9 cells, glucuronide excretion. The following applies: fraxetin 10 μM. The format is cell-based. As to the method:
as §1, §2, §3

The subject of series [3] is BCRP. Details: method as in Sjöstedt et al., 2016. The following applies: ref Sjöstedt et al., 2016; cited from earlier work.
A further series addresses α-glucosidase. Details: method as in Milella et al., 2016. The following applies: versus acarbose, a well-known α-glucosidase inhibitor; ref Milella et al., 2016; cited from earlier work.
For another series, the system named is MRP2. Details: method as in Sjöstedt et al., 2016. The following applies: ref Sjöstedt et al., 2016; cited from earlier work.
On the set-up of series [4]: method as in Wang H. et al., 2016. The following applies: rats; after oral administration of fraxin 50 mg/kg; ref Wang H. et al., 2016; cited from earlier work.
The next series addresses T3, HeLa1A9 cell lysate (Homo sapiens, UniProt O60656).
T3 sequence (O60656 26-530): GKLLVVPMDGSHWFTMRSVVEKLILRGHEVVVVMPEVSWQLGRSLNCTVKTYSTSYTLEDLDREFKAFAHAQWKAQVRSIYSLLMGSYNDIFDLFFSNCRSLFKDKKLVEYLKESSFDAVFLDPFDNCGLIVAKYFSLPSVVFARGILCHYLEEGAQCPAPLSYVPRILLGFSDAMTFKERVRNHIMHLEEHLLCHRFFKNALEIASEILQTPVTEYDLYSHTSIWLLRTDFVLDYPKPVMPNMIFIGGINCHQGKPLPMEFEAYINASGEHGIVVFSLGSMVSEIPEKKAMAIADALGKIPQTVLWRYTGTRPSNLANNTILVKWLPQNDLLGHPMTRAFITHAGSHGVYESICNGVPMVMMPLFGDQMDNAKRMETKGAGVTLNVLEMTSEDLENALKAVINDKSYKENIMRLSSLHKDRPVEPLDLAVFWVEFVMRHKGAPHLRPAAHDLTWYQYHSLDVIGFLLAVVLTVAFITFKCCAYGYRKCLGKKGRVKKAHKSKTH
The series can be described thus: Glucuronidation kinetics by HeLa1A9 cell lysate. The format is in vitro ADME. Conditions: metabolite propofol-G. As to the method: The incubation system was slightly modified on the basis of a previously published article ([Qin et al., 2018a]). […] After preincubation at 37°C for 5 min, UDPGA (3.5 mM) was added to the reaction system, and the mixture was incubated for another 30 min. These reactions were terminated by the addition of an equal volume of ice-cold acetonitrile. The mixed samples were centrifuged at 13800 × g for 10 min, and the supernatant was analyzed by ultra-high-performance liquid chromatography (UHPLC). All the experiments were conducted in triplicate.
The enzyme kinetic parameters were obtained by fitting appropriate kinetic models to the experimental data in GraphPad Prism V5 software (San Diego, CA, United States). The best model was selected based on visual inspection of the Eadie–Hofstee plots ([Qin et al., 2018b]). In brief, if the Eadie–Hofstee plot was linear, formation rates (V) of glucuronides at different substrate concentrations (C) were fitted to the standard equations (1): […]
Where Km is the Michaelis–Menten constant, and Vmax is the maximum rate of glucuronidation. The intrinsic clearance (CLint) was computed as Vmax/Km.

For `COc1cc2ccc(=O)oc2c(O)c1O` [fraxetin], the “changes in excretion rates, intracellular glucuronides and fmet values” at BCRP [1] and on MRP1 was “did not cause any changes” throughout. In addition, the “toxicity toward HeLa1A9 cells” value in the series on HeLa1A9 cells is “no significant toxicity”. The concentration for half-maximal inhibition (IC50) in the series with cystathionine β-synthase was 134 µM. Moreover, the CLint in series [2] (formation of fraxetin-7-O-glucuronide by UGT1A9) is 42 μL/min per milligram of protein; in series [2] (formation of fraxetin-8-O-glucuronide by UGT1A9) it was 300 μL/min per milligram of protein. In addition, the “inhibitory action on transporter” value in the series on BCRP [3] and in the series with MRP2 was “absence of an inhibitory action” in each case. For the same compound, at α-glucosidase, the “half-maximal inhibitory concentration (IC50) compared with acarbose” value was “significantly lower”. The half-life in [4] was 11 h. In addition, the maximal plasma concentration in series [4] is 2250 ng/mL and ~11 μM.
Take `CC(C)c1cccc(C(C)C)c1O` [propofol]: at HeLa1A9 cell lysate, the Vmax was 3.2 ± 0.2 (^aaa) pmol/min/mg.

By IC50 is commonly meant the midpoint of a concentration-inhibition curve. Broadly, the half-life is the time needed for the level to fall by half in the phase considered.
